The data set can be described thus: Amorphonisation of co-milled drug by X-ray diffraction and DSC. It is filed as physicochemical. Particulars: vibration ball mill. As to the method:
Amorphonisation of co-milled IBU was confirmed by DSC and X-RD study. Drug release studies were conducted by and using USP Dissolution apparatus II and media (e.g., acetate buffer) of pH 4.5. Formation of hydrogen bond between silanol groups of SYLOID® silica and functional groups of IBU were believe to be the key to drug amorphonisation in the co-milling process. To confirm the IBU amorphonisation, X-ray diffraction study (XRD) was conducted. […] Additionally, DSC studies were conducted to understand the amorphonisation and possible interaction between silanol groups of SYLOID® silica and IBU. DSC thermograms, shown in FIGS. 5A-5B, confirmed both change in enthalpy and symmetry of peak shape.

SMILES strings stand for the structures.

As to `CC(C)Cc1ccc(C(C)C(=O)O)cc1` (stereo not shown) [IBU, ibuprofen], the “amorphonisation of the crystalline drug into an amorphous state by (co-)milling” value is given as “does not result in an amorphous form”.

For the origin of these results see US11484501B2, “Mechanochemical activated dry amorphisation by milling equilibrium between ap mesoporous silica” (priority 2015, dated 2022).
